Measured values taken from patent US20110201564A1, “SUBSTITUTED 7-SULFANYLMETHYL, 7-SULFINYLMETHYL AND 7-SULFONYLMETHYL INDOLES AND USE THEREOF” (BAYER SCHERING PHARMA AKTIENGESELLSCHAFT, priority 2008, published 2011).

Columns and labels:
CYP3A4 = molecular target: T1, CYP3A4 (Homo sapiens, UniProt P08684); test: Assay to assess irreversible CYP3A4 inhibition (mechanism-based inhibition) in human liver microsomes; assay type: in vitro ADME; conditions: CYP3A4 activity as 6β-hydroxytestosterone formation, 2-20 μM
T1 construct: using human liver microsomes (pool from various individuals); from tissue; host or cells: human liver microsomes (pool from various individuals)
T1 sequence (P08684 whole entry): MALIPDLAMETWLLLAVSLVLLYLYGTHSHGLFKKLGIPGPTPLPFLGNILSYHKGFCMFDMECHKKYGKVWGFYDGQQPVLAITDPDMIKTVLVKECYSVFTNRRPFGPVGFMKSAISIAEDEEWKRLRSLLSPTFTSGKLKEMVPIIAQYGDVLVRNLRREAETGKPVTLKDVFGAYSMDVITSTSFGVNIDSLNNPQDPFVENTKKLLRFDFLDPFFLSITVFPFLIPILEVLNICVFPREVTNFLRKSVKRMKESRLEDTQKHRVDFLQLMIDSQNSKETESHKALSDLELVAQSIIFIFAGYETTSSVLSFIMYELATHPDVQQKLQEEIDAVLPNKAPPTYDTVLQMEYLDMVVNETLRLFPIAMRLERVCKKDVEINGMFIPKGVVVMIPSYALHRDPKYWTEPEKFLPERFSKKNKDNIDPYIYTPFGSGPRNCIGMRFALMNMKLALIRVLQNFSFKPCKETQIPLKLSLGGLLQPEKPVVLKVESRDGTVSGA
Excerpt: 8. Assay to Assess Irreversible CYP3A4 Inhibition
Cytochrom P450 enzyme inhibition, especially irreversible enzyme inhibition, also referred to as mechanism-based inhibition (MBI), is an unwanted metabolic property of a substance which may, on concurrent administration of other medicaments, lead to considerable drug interactions. Criteria for the presence of an irreversible inhibition are a time-, concentration- and cofactor- (nicotinamide adenine dinucleotide phosphate, NADPH) dependent inhibition. To this end, the compounds of the invention are incubated in vitro with human liver microsomes, the influence on the CYP3A4 activity and the metabolic degradation of the novel active ingredient is determined, and the prototypical parameters kinact, Ki and the partition ratio r are ascertained therefrom.
The compounds of the invention are incubated with concentrations of 2-20 μM. To this end, stock solutions of the active ingredients with a concentration of 0.2-2 mM are prepared in acetonitrile and then pipetted with a 1:100 dilution into the incubation mixture. The liver microsomes are incubated in 50 mM potassium phosphate buffer (pH 7.4) with and without NADPH-generating system consisting of 1 mM NADP^+, 5 mM glucose 6-phosphate and 1 unit of glucose 6-phosphate dehydrogenase, at 37° C. After defined preincubation times of 0-50 min, aliquots are removed from these mixtures, diluted 1:25 in a new incubation, and incubated in the presence of testosterone and new NADPH-generating system again for 20 min. These incubation mixtures are stopped with acetonitrile (final concentration about 30% v/v), and the protein is removed by centrifugation at about 15 000×g. The samples stopped in this way are either analyzed directly or stored at −20° C. until analyzed.
The analysis takes place by high performance liquid chromatography with mass spectrometry detection (LC-MS). The formation of 6β-hydroxytestosterone as measure of CYP3A4 activity, and the test substance still remaining is quantified. The parameters kinact, Ki and the partition ratio r are determined therefrom so as to assess the novel active ingredients in relation to MBI.

[1] = molecular target: T2, progesterone receptor (PR) (Homo sapiens, UniProt P06401); test: Cellular in vitro assay, GAL4-PR chimera luciferase reporter in CHO K1 cells (selectivity); assay type: cell-based; conditions: antagonism vs progesterone; CHO K1 GAL4-PR LBD luciferase reporter
T2 construct: of the progesterone receptor (PR, amino acids 680-933); expressed in transfected cells; host or cells: CHO K1
T2 sequence (P06401 680-933): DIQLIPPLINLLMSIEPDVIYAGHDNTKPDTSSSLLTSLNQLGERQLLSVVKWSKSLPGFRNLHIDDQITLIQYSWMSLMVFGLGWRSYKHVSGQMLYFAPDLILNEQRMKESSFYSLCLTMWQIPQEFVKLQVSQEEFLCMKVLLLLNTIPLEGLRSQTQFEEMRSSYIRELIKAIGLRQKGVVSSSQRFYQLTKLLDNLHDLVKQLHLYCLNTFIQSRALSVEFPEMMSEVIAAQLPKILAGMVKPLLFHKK
In short: (§1)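 CHO K1 cells stably expressing GAL4 DNA-binding domain fused to human MR, PR or AR ligand-binding domains plus GAL4-driven firefly luciferase; compounds added 10–30 min before agonist (aldosterone, progesterone or dihydrotestosterone), luciferase read after 5–6 h; IC50 from sigmoidal concentration–response curves.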

androgen receptor (AR) = molecular target: T3, androgen receptor (AR) (Homo sapiens, UniProt P10275); test: Cellular in vitro assay, GAL4-AR chimera luciferase reporter in CHO K1 cells (selectivity); assay type: cell-based; conditions: antagonism vs dihydrotestosterone; CHO K1 GAL4-AR LBD luciferase reporter
T3 construct: of the androgen receptor (AR, amino acids 667-919); expressed in transfected cells; host or cells: CHO K1
T3 sequence (P10275 668-920): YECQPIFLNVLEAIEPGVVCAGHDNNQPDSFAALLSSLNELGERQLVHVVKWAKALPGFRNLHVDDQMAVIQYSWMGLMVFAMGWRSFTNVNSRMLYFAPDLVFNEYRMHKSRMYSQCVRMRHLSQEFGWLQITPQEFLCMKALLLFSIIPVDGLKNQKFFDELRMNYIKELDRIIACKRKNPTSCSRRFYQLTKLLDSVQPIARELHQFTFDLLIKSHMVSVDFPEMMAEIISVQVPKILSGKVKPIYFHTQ
In short: as §1

[2] = molecular target: T4, human mineralocorticoid receptor (MR) (Homo sapiens, UniProt P08235); test: Cellular in vitro assay, GAL4-MR chimera luciferase reporter in CHO K1 cells (inhibitory MR activity); assay type: cell-based; conditions: antagonism vs aldosterone; CHO K1 GAL4-MR LBD luciferase reporter
T4 construct: expressed in transfected cells; host or cells: CHO K1
T4 sequence (P08235 734-984 limits assumed): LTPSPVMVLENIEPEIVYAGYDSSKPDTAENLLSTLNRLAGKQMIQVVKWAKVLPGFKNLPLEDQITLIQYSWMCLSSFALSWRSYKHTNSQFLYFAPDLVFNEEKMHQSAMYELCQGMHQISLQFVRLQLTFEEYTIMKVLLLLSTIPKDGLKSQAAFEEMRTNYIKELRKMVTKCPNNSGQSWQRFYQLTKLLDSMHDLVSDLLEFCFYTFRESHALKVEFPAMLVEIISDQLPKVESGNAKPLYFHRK
In short: as §1

| Partition ratio r (CYP3A4) | IC50 [1] [µM] | IC50 (androgen receptor (AR)) [µM] | IC50 [2] [nM] | SMILES |
| --- | --- | --- | --- | --- |
| >400 | 4.83 | 3.33 | 20 | CS(=O)(=O)Cc1cccc2c(C3(C4CC4)CCc4cc(F)ccc43)c[nH]c12 (stereo not shown) [Example 107, 3-(1-Cyclopropyl-5-fluoro-2,3-dihydro-1H-inden-1-yl)-7-[(methylsulfonyl)methyl]-1H-indole] |
| >200 | 12.3 | 5.64 | 33 | CS(=O)(=O)Cc1cccc2c(C(c3ccc(Cl)cc3)C3CC3(F)F)c[nH]c12 (single isomer, unassigned) [Example 261-1, 3-[(4-Chlorophenyl)(2,2-difluorocyclopropyl)methyl]-7-[(methylsulfonyl)methyl]-1H-indole] |
| >200 | 10 | 0.98 | 6 | CS(=O)(=O)Cc1cc(F)cc2c(C(c3ccc(Cl)cc3F)C3CC3C#N)c[nH]c12 (single isomer, unassigned) [Example 273-1-2, 2-[(4-Chloro-2-fluorophenyl){5-fluoro-7-[(methylsulfonyl)methyl]-1H-indol-3-yl}methyl]cyclopropanecarbonitrile] |
| 220 | 10 | 7.76 | 80 | CS(=O)(=O)Cc1cccc2c(C(CCC#N)c3ccc(Cl)cc3F)c[nH]c12 (single isomer, unassigned) [Example 59-1, 4-(4-Chloro-2-fluorophenyl)-4-{7-[(methylsulfonyl)methyl]-1H-indol-3-yl}butanonitrile] |
| 120 | 16 | 5.28 | 20 | CCC(CCC#N)(c1ccc(Cl)cc1)c1c[nH]c2c(CS(C)(=O)=O)cccc12 (stereo not shown) [Example 172, 4-(4-Chlorophenyl)-4-{7-[(methylsulfonyl)methyl]-1H-indol-3-yl}hexanonitrile] |
| >200 | 10 | 0.94 | 6 | CS(=O)(=O)Cc1cc(F)cc2c(C(c3ccc(C(F)(F)F)cc3F)C3CC3C#N)c[nH]c12 (single isomer, unassigned) [Example 271-1-1, 2-({5-Fluoro-7-[(methylsulfonyl)methyl]-1H-indol-3-yl}[2-fluoro-4-(trifluoro-methyl)phenyl]methyl)cyclopropanecarbonitrile] |
| >500 | 6.57 | 2.28 | 110 | CS(=O)(=O)Cc1cccc2c(C(CCC#N)c3ccc4c(c3)OC(F)(F)O4)c[nH]c12 (stereo not shown) [Example 169, 4-(2,2-Difluoro-1,3-benzodioxol-5-yl)-4-{7-[(methylsulfonyl)methyl]-1H-indol-3-yl}butanonitrile] |
| >500 | 7.24 | 3.22 | 130 | CS(=O)(=O)Cc1cccc2c(C(c3ccc(F)cc3)c3ccc(C(F)(F)F)cc3)c[nH]c12 (stereo not shown) [Example 113, 3-{(4-Fluorophenyl) [4-(trifluoromethyl)phenyl]methyl}-7-[(methylsulfonyl)methyl]-1H-indole] |
| >500 | 6.44 | 5.22 | 90 | CS(=O)(=O)Cc1cccc2c(C(CCC#N)c3ccc4sccc4c3)c[nH]c12 (stereo not shown) [Example 73, 4-(1-Benzothiophen-5-yl)-4-{7-[(methylsulfonyl)methyl]-1H-indol-3-yl}butanonitrile] |
| 90 | 1.42 | 3.02 | 30 | CCC(CCO)(c1ccc(Cl)cc1)c1c[nH]c2c(CS(C)(=O)=O)cccc12 (stereo not shown) [Example 147, 3-(4-Chlorophenyl)-3-{7-[(methylsulfonyl)methyl]-1H-indol-3-yl}pentan-1-ol] |
